Consider 17 molecules from patent US11976083B2, “Inhibitors of peptidylarginine deiminases” (Gilead Sciences, Inc., priority 2020, dated 2024).

SMILES strings stand for the structures.

In the experiment the target is T1, human PAD4 (Homo sapiens, UniProt Q9UM07).
T1 construct: human PAD4 (NM_012387), A2-P663, was PCR amplified; His-SUMO (N, cleaved yes); made in house; host or cells: E. coli BL21(DE3)
Put plainly: In vitro PAD4 BAEE biochemical assay. The conditions noted are these: BAEE substrate 3 mM, 5 nM PAD4, 2 mM calcium chloride; geometric mean of multiple experiments. A digest of the protocol: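 PAD4 5 nM, CaCl2 2 mM, BAEE 3 mM final; 50 mM MOPS pH 7.6, 50 mM NaCl, 0.05% Tween-20, 2 mM DTT. Cpd + enzyme 30 min 25 °C; substrate 2 h 25 °C; EDTA stop; OPA detection 1 h. IC50 4-parameter fit.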

T1 sequence (Q9UM07 2-663): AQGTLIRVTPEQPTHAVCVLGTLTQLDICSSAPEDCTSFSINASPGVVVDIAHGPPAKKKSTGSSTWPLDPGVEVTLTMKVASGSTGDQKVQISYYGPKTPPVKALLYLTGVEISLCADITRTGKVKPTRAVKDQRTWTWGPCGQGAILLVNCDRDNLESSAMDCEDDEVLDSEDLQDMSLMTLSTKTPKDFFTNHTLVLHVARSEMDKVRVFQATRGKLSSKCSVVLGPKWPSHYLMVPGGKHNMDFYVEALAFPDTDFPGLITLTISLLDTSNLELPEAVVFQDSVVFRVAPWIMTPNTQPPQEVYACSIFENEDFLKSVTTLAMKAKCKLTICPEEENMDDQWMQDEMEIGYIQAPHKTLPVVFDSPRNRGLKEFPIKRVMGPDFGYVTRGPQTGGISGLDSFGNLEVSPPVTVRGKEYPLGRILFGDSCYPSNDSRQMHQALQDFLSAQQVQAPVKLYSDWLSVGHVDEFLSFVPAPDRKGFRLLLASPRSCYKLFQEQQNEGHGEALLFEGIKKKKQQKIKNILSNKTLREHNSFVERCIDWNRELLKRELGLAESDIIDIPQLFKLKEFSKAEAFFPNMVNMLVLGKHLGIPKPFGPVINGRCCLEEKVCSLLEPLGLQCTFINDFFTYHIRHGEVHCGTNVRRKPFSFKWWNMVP

For the molecule `C[C@H]1NC(=O)c2c(cccc2C(F)F)CCCCCn2c(-c3nc4cc(C(=O)N[C@H]5CNCC[C@@H]5F)c(F)cc4n3C)cc3ccc1nc32` [Example 384, 2-[(2~{R})-6-(difluoromethyl)-2-methyl-4-oxo-3,16,22-triazatetracyclo[14.5.2.0^{5,10}.0^{19,23}]tricosa-1(22),5(10),6,8,17,19(23),20-heptaen-17-yl]-6-fluoro-~{N}-[(3~{S},4~{S})-4-fluoro-3-piperidyl]-1-methyl-benzimidazole-5-carboxamide], the concentration for half-maximal inhibition (IC50) came to 62 nM.

With `COc1cc(C(=O)N2[C@H]3CC[C@@H]2[C@H](N)C3)cc2nc(-c3cc4ccc5nc4n3CCCCCCCC(=O)Nc3ccccc3-5)n(C)c12` [Example 93, 18-[5-[(1~{R},2~{R},4~{S})-2-amino-7-azabicyclo[2.2.1]heptane-7-carbonyl]-7-methoxy-1-methyl-benzimidazol-2-yl]-8,17,23-triazatetracyclo[15.5.2.0^{2,7).0^{20,24}] tetracosa-1(23),2,4,6,18,20(24),21-heptaen-9-one], the IC50 was 161 nM.

Take `COCCn1c(-c2cc3ccc4nc3n2CCCCC[C@@H]2C[C@H]2C(=O)N[C@@H]4C)nc2cc(C(=O)N[C@H]3CNCC[C@@H]3F)c(F)cc21` [Example 422, 6-fluoro-~{N}-[(4~{S})-4-fluoro-3-piperidyl]-1-(2-methoxyethyl)-2-[(2~{R},5~{R},7~{R})-2-methyl-4-oxo-3,13,19-triazatetracyclo[11.5.2.0^{5,7}.0^{16,20}]icosa-1(18),14,16,19-tetraen-14-yl]benzimidazole-5-carboxamide]: the IC50 came out at 39 nM.

Consider `COc1cc(C(=O)N2CC[C@@H](OC)[C@@H](N)C2)cc2nc(-c3cc4ccc5nc4n3CCCCCCC(c3ccccn3)C(=O)N[C@@H]5C)n(C)c12` (some centres unmarked) [Example 860, (11~{R})-17-[5-[(3~{S),4~{R})-3-amino-4-methoxy-piperidine-1-carbonyl]-7-methoxy-1-methyl-benzimidazol-2-yl]-11-methyl-8-(2-pyridyl)-1,10,19-triazatricyclo [10.5.2.0^{15,18}]nonadeca-12(19),13,15(18),16-tetraen-9-one], for which the IC50 was determined as 44 nM.

Turning to `COC[C@@]12C[C@@H]1CCCCCn1c(-c3nc4cc(C(=O)N5CC[C@@H](OC)[C@@H](N)C5)cc(OC)c4n3C)cc3ccc(nc31)[C@@H](C)NC2=O` [Example 865, (2~{R},5~{R},7~{S})-14-[5-[(3~{S},4~{R})-3-amino-4-methoxy-piperidine-1-carbonyl]-7-methoxy-1-methyl-benzimidazol-2-yl]-5-(methoxymethyl)-2-methyl-3,13,19-triazatetracyclo[11.5.2.0^ {5,7}.0^{16,20}]icosa-1(19), 14,16(20),17-tetraen-4-one], the half-inhibitory concentration (IC50) is 230 nM.

Consider `COc1cc(C(=O)N2[C@H]3CC[C@@H]2[C@H](N)C3)cc2nc(-c3cc4ccc5nc4n3CCCCCCCCC(=O)N3CCC[C@H]53)n(C)c12` [Example 130, (2~{R})-17-[5-[(1~{R},2~{R},4~{S})-2-amino-7-azabicyclo[2.2.1]heptane-7-carbonyl]-7-methoxy-1-methyl-benzimidazol-2-yl]-6,16,22-triazatetracyclo[14.5.2.0^{2,6}.0^{19,23}] tricosa-1(22),17,19(23),20-tetraen-7-one], for which the IC50 came out at 21 nM.

On to `COc1cc(C(=O)N2CCC[C@@H](N)C2)cc2nc(-c3cc4ccc5nc4n3C[C@H]3C[C@@H]3CCCC(C)(C)C(=O)N[C@@H]5C)n(C)c12` [Example 292, (3~{S),5~{S},12~{R})-18-[5-[(3~{R})-3-aminopiperidine-1-carbonyl]-7-methoxy-1-methyl-benzimidazol-2-yl]-9,9,12-trimethyl-1,11,20-triazatetracyclo[11.5.2.0^{3,5}.0^{16,19}] icosa-13(20),14,16(19),17-tetraen-10-one], for which the IC50 is 53 nM.

As to `COc1cc(C(=O)N2[C@H]3CC[C@@H]2[C@H](N)C3)cc2nc(-c3cc4ccc5nc4n3C[C@@H]3C[C@@H]3COCCC(=O)N[C@@H]5C)n(C)c12` [Example 337, (3~{R},5~{S},12~{R})-18-[5-[(1~{R},2~{R},4~{S})-2-amino-7-azabicyclo[2.2.1]heptane-7-carbonyl]-7-methoxy-1-methyl-benzimidazol-2-yl]-12-methyl-7-oxa-1,11,20-triazatetracyclo[11.5.2.0^{3,5}.0^{16,19}] icosa-13(20),14,16(19),17-tetraen-10-one], the IC50 is 32 nM.

On to `C[C@@H]1c2ccc3cc(-c4nc5cc(C(=O)N[C@H]6CNCC[C@@H]6F)c(F)cc5n4C4CC4)n(c3n2)CCCCCc2nc(Cl)ccc2C(=O)N1C` [Example 750, 2-[(2~{R})-8-chloro-2,3-dimethyl-4-oxo-3,9,16,22-tetrazatetracyclo[14.5.2.0^ {5,10}.0^{19,23}]tricosa-1(22),5(10),6,8,17,19(23),20-heptaen-17-yl]-1-cyclopropyl-6-fluoro-~{N}-[(3~{S},4~ {S})-4-fluoro-3-piperidyl] benzimidazole-5-carboxamide], for which the IC50 was 28 nM.

Regarding `CO[C@@H]1CCN(C(=O)c2ccc3c(c2)nc(-c2cc4ccc5nc4n2CCCCC[C@@H]2C[C@H]2C(=O)N[C@@H]5C)n3C2CC2)C[C@@H]1N` [Example 691, (2~{R},5~{R},7~{R})-14-[5-[(3~{S},4~{R})-3-amino-4-methoxy-piperidine-1-carbonyl]-1-cyclopropyl-benzimidazol-2-yl]-2-methyl-3,13,19-triazatetracyclo[11.5.2.0^ {5,7}.0^{16,20}]icosa-1(19),14,16(20),17-tetraen-4-one], the IC50 is 33 nM.

For `COc1cc(C(=O)N2CCC[C@@H](N)C2)cc2nc(-c3cc4ccc5nc4n3C[C@H]3C[C@H]3CCCC(C)(C)C(=O)N[C@@H]5C)n(C)c12` [Example 119, (3~{S},5~{R},12~{R})-18-[5-[(3~{R})-3-aminopiperidine-1-carbonyl]-7-methoxy-1-methyl-benzimidazol-2-yl]-9,9,12-trimethyl-1,11,20-triazatetracyclo[11.5.2.0^{3,5}.0^{16,19}] icosa-13(20),14,16(19),17-tetraen-10-one], the IC50 amounted to 60 nM.

On to `COc1cc(C(=O)N2CC[C@@H](OC(F)F)[C@@H](N)C2)cc2nc(-c3cc4ccc5nc4n3CCCCCc3cc4ccccc4nc3C(=O)N[C@@H]5C)n(C)c12` [Example 732, (2~{R})-21-[5-[(3~{S},4~{R})-3-amino-4-(difluoromethoxy)piperidine-1-carbonyl]-7-methoxy-1-methyl-benzimidazol-2-yl]-2-methyl-3,6,20,26-tetrazapentacyclo[18.5.2.0^ {5,14}.0^{7,12}.0^{23,27}] heptacosa-1(26),5(14),6,8,10, 12,21,23(27),24-nonaen-4-one], for which the half-maximal inhibitory concentration (IC50) turned out to be 214 nM.

For the molecule `COc1cc(C(=O)N[C@H]2CNCC[C@@H]2F)cc2nc(-c3cc4ccc5nc4n3CCCCCc3nnn(C)c3C(=O)N[C@@H]5C)n(C)c12` [Example 183, 2-[(2~{R})-2,6-dimethyl-4-oxo-3,6,7,8,15,21-hexazatetracyclo[13.5.2.0^{5,9}.0^{18,22}]docosa-1(21),5(9),7,16,18(22),19-hexaen-16-yl]-~{N}-[(3~{S},4~{S})-4-fluoro-3-piperidyl]-7-methoxy-1-methyl-benzimidazole-5-carboxamide], the concentration for half-maximal inhibition (IC50) is 121 nM.

`COc1cc(C(=O)N2[C@H]3CC[C@@H]2[C@H](N)C3)cc2nc(-c3cc4ccc5nc4n3CCCCC[C@@H]3C[C@H]3C(=O)N[C@@H]5C)n(C)c12` (single isomer, unassigned) [Example 223, (2˜{R},5˜{R},7˜{R})-14-[5-[(1˜{R},2˜{R},4˜{S})-2-amino-7-azabicyclo[2.2.1]heptane-7-carbonyl]-7-methoxy-1-methyl-benzimidazol-2-yl]-2-methyl-3,13,19-triazatetracyclo[11.5.2.0^{5,7}.0^{16,20}]icosa-1(19),14,16(20),17-tetraen-4-one]: the IC50 was found to be 28 nM.

Regarding `COc1cc(C(=O)N2C[C@H](N)[C@@H]3CC[C@H]2C3)cc2nc(-c3cc4ccc5nc4n3CCCCCCC(C)(C)C(=O)N[C@@H]5C)n(C)c12` [Example 441, (11~{R})-17-[5-[(1~{S),4~{R},5~{R})-4-amino-2-azabicyclo[3.2.1]octane-2-carbonyl]-7-methoxy-1-methyl-benzimidazol-2-yl]-8,8,11-trimethyl-1,10,19-triazatricyclo[10.5.2.0^{15,18}]nonadeca-12(19),13,15(18),16-tetraen-9-one], the IC50 was determined as 37 nM.

For the molecule `C[C@H]1NC(=O)[C@@H]2C[C@H]2CCCCCn2c(-c3nc4cc(C(=O)N[C@H]5CNCC[C@@H]5F)c(F)cc4n3C3CC34CC4)cc3ccc1nc32` (some centres unmarked) [Example 571, 6-fluoro-~{N}-[(3~ {S},4~{S})-4-fluoro-3-piperidyl]-2-[(2~{R}, 5~{R},7~{R})-2-methyl-4-oxo-3,13,19-triazatetracyclo[11.5.2.0^ {5,7}.0^{16,20}]icosa-1(19),14,16(20),17-tetraen-14-yl]-1-spiro [2.2]pentan-2-yl-benzimidazole-5-carboxamide], the concentration for half-maximal inhibition (IC50) was 31 nM.

For `COc1cc(C(=O)N2CC[C@@H](OC)[C@@H](N)C2)cc2nc(-c3cc4ccc5nc4n3CCCCC[C@H]3C[C@]3(C(F)(F)F)C(=O)N[C@@H]5C)n(C)c12` [Example 636, (2~{R},5~{R},7~{S})-14-[5-[(3~{S},4~{R})-3-amino-4-methoxy-piperidine-1-carbonyl]-7-methoxy-1-methyl-benzimidazol-2-yl]-2-methyl-5-(trifluoromethyl)-3,13,19-triazatetracyclo [11.5.2.0^{5,7}.0^ {16,20}]icosa-1(19), 14,16(20),17-tetraen-4-one], the half-inhibitory concentration (IC50) is 52 nM.
